Assays:
[1] = target: T1, human adenosine A1 receptor (Homo sapiens, UniProt P30542); assay: Adenosine A1 Receptor Functional Assay (A1GAL2); assay type: cell-based; settings: CHO-K1 cells, cAMP inducible beta-galactosidase reporter, 4nM r-PIA/1 uM Forskolin agonist challenge
T1 construct: expressed in transfected cells; host or cells: CHO-K1
T1 sequence (P30542 1-326): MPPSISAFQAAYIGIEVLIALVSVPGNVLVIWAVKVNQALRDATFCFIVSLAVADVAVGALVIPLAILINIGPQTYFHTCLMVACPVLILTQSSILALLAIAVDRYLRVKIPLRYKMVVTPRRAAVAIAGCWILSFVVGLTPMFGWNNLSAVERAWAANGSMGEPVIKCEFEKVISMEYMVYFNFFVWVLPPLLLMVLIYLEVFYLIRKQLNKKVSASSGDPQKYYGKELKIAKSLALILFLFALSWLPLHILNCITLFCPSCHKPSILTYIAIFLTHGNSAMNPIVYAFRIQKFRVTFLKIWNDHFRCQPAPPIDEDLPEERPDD
Protocol: (§1) To initiate the functional assay, cryopreserved CHO-K1 cells overexpressing the human adenosine A1 receptor and containing a cAMP inducible beta-galactosidase reporter gene were thawed, centrifuged, DMSO containing media removed, and then seeded with fresh culture media into clear 384-well tissue culture treated plates (BD #353961) at a concentration of 10K cells/well. Prior to assay, these plates were cultured for two days at 37° C., 5% CO2, 90% Rh. On the day of the functional assay, culture media was removed and replaced with 45 uL assay medium (Hams/F-12 Modified (Mediatech #10-080CV) supplemented w/0.1% BSA). Test compounds were diluted and 11 point curves created at a 1000× concentration in 100% DMSO. Immediately after addition of assay media to the cell plates, 50 nL of the appropriate test compound antagonist or agonist control curves were added to cell plates using a Cartesian Hummingbird. Compound curves were allowed to incubate at room temperature on cell plates for approximately 15 minutes before addition of a 4nM r-PIA (Sigma P4532)/1 uM Forskolin (Sigma F3917) agonist challenge (5 uL volume). A control curve of r-PIA in 1 uM Forskolin, a DMSO/Media control, and a single dose of Forskolin were also included on each plate. After additions, cell plates were allowed to incubate at 37° C., 5% CO2, 90% Rh for 5.5-6 hours. After incubation, media was removed, and cell plates were washed 1×50 uL with DPBS w/o Ca & Mg (Mediatech 21-031-CV). Into dry wells, 20 uL of 1× Reporter Lysis Buffer (Promega E3971 (diluted in dH2O from 5× stock)) was added to each well and plates frozen at −20° C. overnight. For β-galactosidase enzyme calorimetric assay, plates were thawed out at room temperature and 20 μL 2× assay buffer (Promega) was added to each well. Color was allowed to develop at 37° C., 5% CO2, 90% Rh for 1-1.5 h or until reasonable signal appeared. The calorimetric reaction was stopped with the addition of 60 μL/well 1M sodium carbonate. Plates were counted at 405 nm on a SpectraMax Microplate Reader (Molecular Devices). Data was analyzed in Microsoft Excel and IC/EC50 curves were fit using a standardized macro.

[2] = target: T2, human adenosine A2a receptor (Homo sapiens, UniProt P29274); assay: Adenosine A2a Receptor Functional Assay (A2AGAL2); assay type: cell-based; settings: CHO-K1 cells, cAMP inducible beta-galactosidase reporter, 15 nM NECA agonist challenge
T2 construct: expressed in transfected cells; host or cells: CHO-K1
Protocol: as §1, with “A2a” for “A1”, “15 nM NECA” for “4nM r-PIA”, “E2387)” for “P4532)/1 uM Forskolin (Sigma F3917)”, “NECA,” for “r-PIA in 1 uM Forskolin,”, “Forskolin (Sigma F3917)” for “Forskolin”

[3] = target: T3, human A2a adenosine receptor (Homo sapiens, UniProt P29274); assay: Ligand Binding Assay for Adenosine A2a Receptor (A2A-B); settings: HEK293 cell plasma membrane, radioligand [3H]CGS21680
T3 construct: purchased PerkinElmer RB-HA2a; host or cells: HEK293 plasma membrane
Protocol: Ligand binding assay of adenosine A2a receptor was performed using plasma membrane of HEK293 cells containing human A2a adenosine receptor (PerkinElmer, RB-HA2a) and radioligand [^3H]CGS21680 (PerkinElmer, NET1021). Assay was set up in 96-well polypropylene plate in total volume of 200 μL by sequentially adding 20 μL 1:20 diluted membrane, 130 μL assay buffer (50 mM Tris·HCl, pH7.4 10 mM MgCl2, 1 mM EDTA) containing [^3H] CGS21680, 50 μL diluted compound (4×) or vehicle control in assay buffer. Nonspecific binding was determined by […] NECA. Reaction was carried out at room temperature for 2 hours before filtering through 96-well GF/C filter plate pre-soaked in 50 mM Tris·HCl, pH7.4 containing 0.3% polyethylenimine. Plates were then washed 5 times with cold 50 mM Tris·HCl, pH7.4, dried and sealed at the bottom. Microscintillation fluid 30 μL was added to each well and the top sealed. Plates were counted on Packard Topcount for [^3H]. Data was analyzed in Microsoft Excel and GraphPad Prism programs. (Varani, K.; Gessi, S.; Dalpiaz, A.; Borea, P. A. British Journal of Pharmacology, 1996, 117, 1693)

T2 sequence (P29274 whole entry): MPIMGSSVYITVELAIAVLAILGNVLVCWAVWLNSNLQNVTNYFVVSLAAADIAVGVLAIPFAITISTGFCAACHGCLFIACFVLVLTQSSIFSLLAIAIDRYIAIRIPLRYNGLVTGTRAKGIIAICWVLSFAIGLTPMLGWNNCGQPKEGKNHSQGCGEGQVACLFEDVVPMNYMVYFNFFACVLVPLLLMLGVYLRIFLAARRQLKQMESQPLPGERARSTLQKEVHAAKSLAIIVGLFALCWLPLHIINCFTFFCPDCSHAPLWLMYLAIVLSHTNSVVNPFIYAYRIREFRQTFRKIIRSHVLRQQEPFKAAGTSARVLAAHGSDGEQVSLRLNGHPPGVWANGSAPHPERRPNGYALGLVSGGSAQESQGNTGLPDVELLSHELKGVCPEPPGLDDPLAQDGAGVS
T3 sequence (P29274 whole entry): as above

Structure (SMILES) | Ki [1] | Ki [2] | Ki [3]
N#Cc1cccc(-c2nc(N)c3cc(C(=O)N4CCOCC4)sc3n2)c1 [Example 2, 3-[4-Amino-6-(morpholine-4-carbonyl)-thieno[2,3-d]pyrimidin-2-yl]-benzonitrile] | 900 nM | 37.9 nM | 22 nM
Cc1ccc(-c2nc(N)c3cc(C(=O)N4CCOCC4)sc3n2)o1 [Example 5, [4-Amino-2-(5-methyl-furan-2-yl)-thieno[2,3-d]pyrimidin-6-yl]-morpholin-4-yl-methanone] | 167 nM | 11 nM | 12 nM
Cc1csc(-c2nc(N)c3cc(C(=O)N4CCOCC4)sc3n2)n1 [Example 3, [4-Amino-2-(4-methyl-thiazol-2-yl)-thieno[2,3-d]pyrimidin-6-yl]-morpholin-4-yl-methanone] | 851 nM | 24.9 nM | 45.5 nM
Nc1nc(-c2ncco2)nc2sc(C(=O)NCc3ccccn3)cc12 [Example 24, 4-Amino-2-oxazol-2-yl-thieno[2,3-d]pyrimidine-6-carboxylic acid(pyridin-2-ylmethyl)-amide] | 422 nM | 137 nM | 
N#Cc1cccc(-c2nc(N)c3cc(C(=O)NCc4ccccn4)sc3n2)c1 [Example 15, 4-Amino-2-(3-cyano-phenyl)-thieno[2,3-d]pyrimidine-6-carboxylic acid(pyridin-2-ylmethyl)-amide] | 113 nM | 29 nM | 
Cc1cc(-c2nc(N)c3cc(C(=O)NCc4cccnc4)sc3n2)no1 [Example 21, 4-Amino-2-(5-methyl-isoxazol-3-yl)-thieno[2,3-d]pyrimidine-6-carboxylic acid(pyridin-3-ylmethyl)-amide] | 26.9 nM | 310 nM | 
Cc1csc(-c2nc(N)c3cc(C(=O)NCc4cccnc4)sc3n2)n1 [Example 27, 4-Amino-2-(4-methyl-thiazol-2-yl)-thieno[2,3-d]pyrimidine-6-carboxylic acid(pyridin-3-ylmethyl)-amide] | 245 nM | 40.3 nM | 
N#Cc1cccc(-c2nc(N)c3cc(C(=O)NCCc4cccnc4)sc3n2)c1 [Example 16, 4-Amino-2-(3-cyano-phenyl)-thieno[2,3-d]pyrimidine-6-carboxylic acid(2-pyridin-3-yl-ethyl)-amide] | 467 nM | 115 nM | 
